Data from the NIST ThermoML archive (doi:10.1021/je700746a).
Numbers after ± are expanded uncertainties.

Details: 298.15 K; 101.33 kPa; Liquid

CC(=O)CC(C)C [4-methylpentan-2-one]
viscosity: 0.56 ± 0.04 mPa·s
